Values of other authors, collected in US10149821B2, “Orosoluble and/or effervescent compositions containing at least a salt of S-adenosyl methionine (SAMe)” (priority 2009, dated 2018).

Columns and labels:
[1] = oral intake, SAMe radiolabeled on the carbon of the methyl group
[2] = not given; remark: listed apart in the source
[3] = temperatures above 0° C.

C[S+](CC[C@H](N)C(=O)O)C[C@H]1O[C@@H](n2cnc3c(N)ncnc32)[C@H](O)[C@@H]1O (some centres unmarked) [SAMe, S-adenosyl methionine]
half-life in the liver: about 5 minutes
hepatic metabolism, % of the administered radioactivity [1]: about 60%
plasma levels of the non-modified molecule, % of the administered dose ([2]; oral intake, swallowable gastro-protected tablets): 5-10%
plasma bioavailability, % of the administered dose ([2]; parenteral administration (endovenous or intramuscular)): 90-100%
stability [3]: very unstable
